Like-named read-outs stand apart in the source and are kept apart here.
Experiments:
[1] = test system: PRV=pseudorabies virus; details: fibrinogen 5 g/L, UVC 254 nm, eight passes
[2] = cited from earlier work
[3] = test system: Factor VIII; assay type: biochemical
[4] = test system: PRV

Row | Structure (SMILES) | Log reduction PRV ([1]; stabiliser 0.5 mM) | Log reduction PRV ([1]; stabiliser 1 mmol/l) | Log reduction PRV ([1]; stabiliser 2 mmol/l) | solubility in aqueous solutions [2] | decrease in FVIII activity [3] | PRV titer reduction [4]
1 | C[C@@H]1O[C@@H](OC[C@H]2O[C@@H](Oc3c(-c4ccc(O)c(O)c4)oc4cc(O)cc(O)c4c3=O)[C@H](O)[C@@H](O)[C@@H]2O)[C@H](O)[C@H](O)[C@H]1O [rutin, reference compound] | 3 Log | 3 Log | 2.5 Log | poorly soluble in aqueous solutions |  | 
2 | COc1cc(C=O)ccc1O [vanillin] | 5 Log | 5.5 Log | 5.5 Log |  | 10% | 5 Log

From US20040131497A1, “PROCESS FOR STERILIZATION OF BIOLOGICAL COMPOSITIONS CONTAING PROTEIN” (priority 2002, published 2004)
